Patent US6855536B2, “Materials and methods for the enhancement of effective root nodulation in legumes” (priority 2000, dated 2005)
Entries after “also recorded” stand apart in the source; their conditions may differ.

Key:
nolA-lacZ fusion = experiment: nolA-lacZ (nolA1,2,3-lacZ) fusion β-galactosidase assay in B. japonicum; type: cell-based, Bradyrhizobium japonicum; settings: for Induction of nolA expression (in words): B. japonicum harboring nolA-lacZ fusion
Method: (§1) Bacterial Stains, plasmids and culture conditions. For routine bacterial growth, B. japonicum cells were maintained on RDY medium (So, J. -S. et al. [1987] Mol. Gen. Genet. 207:15-23). Bacteria were grown in minimal medium (Bergensen, F. J. [1961] Aust. J. Biol. Sci. 14:349-360) for β-galactosidase activity. As required, antibiotics were used at the following concentrations, Cm (30 μg/ml), Sm (100 μg/ml), Sp (100 μg/ml), Tc (100 μg/ml). The B. japonicum strains used in this study were Bj110-42, BJAlac12, BJAlac23, BJAlac13 and BJ110-1248-1, ZB977, SL101 and Bj110-573. These strains harbored the following translational fusions; BJ110-1248-1 (nodD2-lacZ, plasmid pRJ1248, Dockendorff et al. [1994] Mol. Plant-Microbe Interact. 7:596-602), ZB977 (nodY-lacZ, plasmid pZB32, Banfalvi et al. [1988] Mol. Gen. Genet. 214:420-424), SL101 (npt-lacZ, Yuen, J. P.-Y and G. Stacey [1996] Mol. Plant-Microbe Interact. 9:424-428), and Bj110-573 (nodC-lacZ, chromosomally integrated fusion, Dockendorff et al. [1994] Mol. Plant-Microbe Interact 7:596-602). Strains Bj110-42, BJAlac23, BJAlac12, BJAlac13 harbored nolA-lacZ translational fusions encoded on plasmids pBGALac1, pNMAlac23, pNMAlac13, pNMAlac12 respectively (Garcia et al. [1996] Mol. Plant-Microbe Interact. 9:625-635; Loh et al. [1999] J. Bacteriol. 181:1544-1554). Plasmid pNMAlac23 contained mutations to ATG2 and ATG3 of nolA and allowed the specific expression of NolA1-lacZ. In contrast, plasmids pNMAlac13 (mutations to ATG1 and ATG3) and pNMAlac12 (mutation to ATG1 and ATG3, Loh et al. [1999] J. Bacteriol. 181:1544-1554) only expressed NolA2-lacZ and NolA3-lacZ, respectively.
Typically, B. japonicum cells are found in high population density in commercial inoculants. To determine if the bacterial nolA inducer was present in commercial inoculant, three soybean inoculants from two commercially available sources were extracted with butanol, and these extracts analyzed for their ability to induce the nolA-lacZ fusions.
As shown in Tables 2-3 and FIG. 11C, an inducer of nolA-lacZ and nodD2-lacZ expression was detected in conditioned medium from B. japonicum cultures grown to a high population density. […] The nolA inducer present in the conditioned medium was lost after dialysis using a membrane with a cutoff at 3 kDa (Fisher Scientific, Pittsburgh, Pa.).

nodC-lacZ = nodC-lacZ fusion induction by genistein in B. japonicum Bj110-573; type: cell-based, Bradyrhizobium japonicum; settings: 0.025 μM genistein, 5 hours; cells harvested at high population densities (A600=1.62 or 3.22)
Method: as §1, with “Plasmid pNMAlac23 contained mutations to ATG2 and ATG3 of nolA and allowed the specific expression of NolA1-lacZ. In contrast, plasmids pNMAlac13 (mutations to ATG1 and ATG3) and pNMAlac12 (mutation to ATG1 and ATG3, Loh et al. [1999] J. Bacteriol. 181:1544-1554) only expressed NolA2-lacZ and NolA3-lacZ, respectively.” left out

nodY-lacZ = nodY-lacZ fusion induction by genistein in B. japonicum; type: cell-based, Bradyrhizobium japonicum; settings: for Effect on nodY-lacZ expression: 0.025 μM genistein for five hours, with or without 500 μM FeCl3
Method: as §1
This view is supported experimentally by the following two results.
The levels of nod gene expression were also found to be affected by IND-1.

[1] = test system: nodule occupancy by the NwsB mutant; experiment: Nodule occupancy competition assay, NwsB mutant versus wild-type; type: in vivo, Glycine max; settings: 25 μM BEHP; NwsB mutant and USDA110 at different ratios; 21 days post inoculation
Method: Different ratios of B. japonicum USDA110 and B. japonicum NwsB mutant were innoculated on soybean plants grown in growth pouches. At the time of innoculation, the root tip (RT) mark was noted on the outside of the pouches. Nodules were extracted 21 days post innoculation and the extracts were plated on RDY plates. Single colonies were picked and tested for streptomycin resistance (a marker for the NwsB mutant). (A) is above RT at time of innoculation; (B) below RT at time of innoculation.
We have generated, by recombinant means, mutations in the nwsB gene. The NwsB mutant appears to be defective in the recognition of the quorum signal and we have performed plant tests with the mutant in competition assays with the wild-type bacteria. In these assays, the effect of IND-1 (BEHP) on the ability of the NwsB mutant to nodulate soybean in the presence of wild-type bacteria (at different cell ratios) was examined. […] Nodule occupancy was scored both above (treated area) and below (new root growth) the root tip mark at the time of inoculation. […] These studies were conducted using 25 μM levels of BEHP.

NolA1-lacZ = NolA1-lacZ fusion β-galactosidase assay in B. japonicum; type: cell-based, Bradyrhizobium japonicum; settings: NolA3-lacZ fusions compared
Method: as §1, with “Strains Bj110-42, BJAlac23, BJAlac12, BJAlac13 harbored nolA-lacZ translational fusions encoded on plasmids pBGALac1, pNMAlac23, pNMAlac13, pNMAlac12 respectively (Garcia et al. [1996] Mol. Plant-Microbe Interact. 9:625-635; Loh et al. [1999] J. Bacteriol. 181:1544-1554). Plasmid pNMAlac23 contained mutations to ATG2 and ATG3 of nolA and allowed the specific expression of NolA1-lacZ. In contrast, plasmids pNMAlac13 (mutations to ATG1 and ATG3) and pNMAlac12 (mutation to ATG1 and ATG3, Loh et al. [1999] J. Bacteriol. 181:1544-1554) only expressed NolA2-lacZ and NolA3-lacZ, respectively.” left out
As shown in Tables 2-3 and FIG. 11C, an inducer of nolA-lacZ and nodD2-lacZ expression was detected in conditioned medium from B. japonicum cultures grown to a high population density. […]

[2] = test system: nodulation of soybean by B. japonicum; experiment: Soybean nodulation plant test in growth pouches; type: in vivo, Glycine max; settings: for Effect on nodulation of soybean (in words): B. japonicum cells pretreated 1 h, 10^7 cells per root, nodules counted 21 days post-inoculation
Method: The significance of nod gene repression by both IND-1 and the quorum factor was also investigated in plant tests. Seeds of Glycine maxcv Essex were surface sterilized, placed in sterile growth pouches (Mega International, MN) and cultivated as described by Nieuwkoop et al. (Nieuwkoop et al. [1987] J. Bacteriol. 169:2631-2638). Each seedling was inoculated with 10^7 B. japonicum cells. Prior to inoculation of the roots, B. japonicum cells were incubated for 1 h with concentrated, conditioned medium that had been sterilized by filtration through a […] filter (Millipore, Bedford, Mass.). The conditioned medium was used at a final concentration of 10 μl per 1 ml of culture. At the time of inoculation, the location of the root tip was marked on the outside of the plastic growth pouch. Plants were watered with nitrogen free nutrient solution (Wacek and Brill [1976] Crop Sci. 15:519-523). At 21 days post-inoculation, the number of nodules on each root both above and below the root tip mark was recorded.

CDF production = CDF production in B. japonicum cultures grown with iron; type: cell-based, Bradyrhizobium japonicum; settings: Fe^3+ added to B. japonicum cultures
[3] = listed as phthalic acid bis-(2-ethyl-hexyl) ester

Compound: O=c1c(-c2ccc(O)cc2)coc2cc(O)cc(O)c12 [genistein, reference compound]
- Induction of nolA expression (in words) (nolA-lacZ fusion): failed to induced nolA expression
- nodC-lacZ induction by genistein (nodC-lacZ): Little or no nodC induction
- Induction of nodY-lacZ, β-galactosidase activity (nodY-lacZ; 0.05 μM genistein for 5 h, with or without CM (A600 = 1.0), CPRG substrate, mean of two ± SD): 366 ± 11 U

Compound: O=c1c(-c2ccc(O)cc2)coc2cc(O)ccc12 [daidzein, reference compound]
- Induction of nolA expression (in words) (nolA-lacZ fusion): failed to induced nolA expression

Compound: CCCCC(CC)COC(=O)c1ccccc1C(=O)OCC(CC)CCCC (stereo not shown) [IND-1, phthalic acid bis-(2-ethyl-hexyl) ester]
- Percentage of nodules occupied by the NwsB mutant [1]: increase the percentage of nodules that were occupied by the NwsB mutant
- Which NolA form is affected (NolA1, NolA2, NolA3) (NolA1-lacZ): affect only NolA1 expression
- Induction of nolA expression (in words) (nolA-lacZ fusion): active on B. japonicum nolA-lacZ fusions; also recorded: capable of inducing nolA
- Induction of nolA expression (in words) (nolA-lacZ fusion; [3]): potent inducer of nolA; also recorded: strong inducer of NolA expression
- Effect on nod gene (nodY-lacZ) induction by genistein (in words) (nodY-lacZ; B. japonicum at low population density, IND-1 in USDA110, USDA76, USDA31): reduced nodY-lacZ induction by genistein
- Effect on nodulation of soybean (in words) [2]: reduced nodulation efficiency
- Effect on nodulation of soybean (in words) [2, 3]: inhibits nodulation
- Nodule phenotype in the presence of BEHP ([2]; UV treated USDA61 A2 73 cells inoculated onto soybean roots): delayed nodule phenotype

Compound: [Cl][Fe]([Cl])[Cl] [Fe^3+, FeCl3]
- Effect on nolA expression at high culture densities (nolA-lacZ fusion; increasing concentrations of FeCl3 for five hours): significantly reduced the expression of nolA expression
- Effect on nodY-lacZ expression (nodY-lacZ): corresponding increase in nodY-lacZ expression
- Effect on nodY-lacZ expression (nodY-lacZ; listed as FeCl3): increase in the expression of a nodY-lacZ fusion protein
- Effect on CDF production (CDF production): inhibit CDF production
